Like-named read-outs stand apart in the source and are kept apart here. Positions of bridges follow the written chain, without caps; N, C: chain ends. Non-standard residues stand in square brackets, D forms with d. Residues, ends and D or L forms follow the SMILES beside them. No end group written: not given here. *: point of attachment. Lauroyl = CCCCCCCCCCCC(=O)*; Decanoyl = CCCCCCCCCC(=O)*; X1 = CC[C@H](C)CCCCC(=O)*; Nle = CCCC[C@H](N)C(=O)O; Dab = NCC[C@H](N)C(=O)O
What was measured:
[1] = tested on: Staphylococcus aureus ATTC 25923; assay type: cell-based; details: broth microdilution, MHB, overnight 37 °C, triplicate
Protocol: (§1) The minimal peptide concentration required to prevent the growth of a given test organism was determined after incubation overnight at 37 °C and was defined as the MIC. Activity was determined in representative bacteria, Escherichia coli ATTC 25922, Pseudomonas aeruginosa ATTC 27853, and Staphylococcus aureus ATTC 25923, using the broth microdilution method. Serial-two-fold dilutions of peptide (from 0.06 to 32 μg/mL) were performed in Mueller–Hinton broth (MHB) culture medium in sterile 96-well polypropylene microtiter plates inoculated with a final concentration of 5 × 10^5 CFU·mL^−1 of bacteria in each well. Bacteria were in the pre-exponential phase. Each determination was done by triplicate. In order to be considered acceptable, the three MIC results have to differ in only in one well, and the result was always given as the higher of the three. Drug-free and microorganism-free wells were used as positive and negative controls, respectively. Bacterial growth was visually determined on the basis of turbidity.

[2] = tested on: Pseudomonas aeruginosa ATTC 27853; assay type: cell-based; details: broth microdilution, MHB, overnight 37 °C, triplicate
Protocol: as §1

[3] = tested on: Escherichia coli ATTC 25922; assay type: cell-based; details: broth microdilution, MHB, overnight 37 °C, triplicate
Protocol: as §1

[4] = tested on: fresh rabbit erythrocytes; assay: Hemolysis assay; assay type: cell-based; details: 335 μM lipopeptide, 1 h at 37 °C, 10 mM Tris 80 mM NaCl pH 7.4, absorbance 540 nm, average of three independent experiments
Protocol: Hemolytic activity was evaluated on fresh rabbit erythrocytes collected in EDTA collection tubes, as previously described. Briefly, an erythrocite suspension in buffer (10 mM Tris, 80 mM NaCl pH 7.4) was obtained by centrifugation (three times, 10 min at 4000 rpm) and adjusted at an optical density of 1 at 540 nm. Aliquots of 200 µL were incubated for 1 h at 37 °C with the different lipopeptides in 96-well polypropylene microtiter plates and centrifuged (15 min, 5000 rpm). Lipopetide-induced hemolysis was determined by measuring the absorbance at 540 nm of released hemoglobin (Asample) in the supernatant. Each determination was done by triplicate, and as negative and positive controls, erythrocytes in buffer (A0%) and in distilled water (A100%) were employed, respectively. Hemolysis was calculated according the following equation: % hemolysis = 100 · (Asample − A0%/A100% − A0%).

[5] = FRET lipid mixing (NBD-PE/Rh-PE); details: 1:1 vesicles with 0.6% NBD-PE or Rh-PE, total lipid 107 μM, 25 °C, 10 mM Tris pH 7.4
Protocol: Large unilamellar vesicles (LUVs) of POPG, POPE/POPG (6:4), or POPC, alone or with the fluorescently labeled phospholipids NBD-PE or Rh-PE, were prepared by the evaporation of a mixture of the lipids and probes in CHCl3. The solvent was removed by a gentle stream of nitrogen gas followed by overnight storage under vacuum. The dried films were hydrated with Tris 10 mM pH 7.4 to the desired final lipid concentration and then sonicated in a bath type sonicator (Lab Supplies, Hickesville, NY, Model G112SPIT) until a clear dispersion was obtained (typically 3–5 min). […] The average diameter was determined by dynamic light scattering with a Malvern II-C Autosizer, with a z-diameter between 111 and 117 nm, and a polydispersity of 0.1. […] Moreover, they contained 0.2% Rh-PE for monitoring the fluorescence before and after the separation of the unencapsulated material, which was carried out by gel filtration on a Sephadex G-50 column eluted with 10 mM Tris 80 mM NaCl. In this way, the final lipid concentration was calculated taking into account the loss of lipid and the dilution of the sample.
Peptide-induced lipid mixing of vesicles of different composition was investigated in the same spectrofluorimeter, measuring the increase in fluorescence resonance energy transfer (FRET) from an NBD-PE donor population to an Rh-PE acceptor population. […]

[6] = Kinetics of insertion into monolayers; assay type: binding, Salmonella enterica serotype Minnesota Re 595; details: initial pressure 32 mN·m^−1, peptide 0.48 μM, 25 min after injection, 10 mM Tris pH 7.4, 25 °C, average of three independent experiments (error < 10%)
Protocol: (§2) Monolayer studies were performed at room temperature (25 °C) on a monolayer system (NIMA Technology, Coventry, UK) by using a cylindrical PTFE (Teflon®, Wilmington, DE, USA) trough (5 cm diameter) containing a continuously stirred aqueous phase (12 mL, 10 mM Tris pH 7.4) and a Wilhelmy platinum plate connected to an electrobalance. The system was enclosed in a Plexiglass box to reduce surface contamination, and before each run, the plate and the trough were cleaned with hot water at >70 °C to avoid carryover of lipid or peptide. Monolayers of POPG, POPE/POPG (6:4), POPC, or LPS were formed by applying small drops of the lipid stock solutions in CHCl3 on the aqueous subphase with a microsyringe (Hamilton Co., Reno, NV, USA) to achieve a surface pressure of 32 mN·m^−1. After 10 min, allowing for solvent evaporation, a known aliquot of peptide was added without disturbance of the monolayer via an inlet port, and the surface pressure was continuously monitored.

[7] = Kinetics of insertion into monolayers; assay type: binding; details: 25 min after injection, 10 mM Tris pH 7.4, 25 °C, average of three independent experiments (error < 10%); for Increase in surface pressure (Δπ), POPE/POPG: POPE/POPG 6:4, initial pressure 32 mN·m^−1, peptide 0.48 μM; for Increase in surface pressure (Δπ), POPC / Increase in surface pressure (Δπ), POPG: initial pressure 32 mN·m^−1, peptide 0.48 μM
Protocol: as §2

[8] = tested on: P. aeruginosa; assay: Transmission electron microscopy of treated bacteria; assay type: cell-based, Pseudomonas aeruginosa; details: 1xMIC, 2 h, room temperature, tryptone water
Protocol: (§3) Then, 500 µL of this culture were added to 50 mL of tryptone water for a concentration of ≈10^8 bacteria·mL^−1. Aliquots of 10 mL were incubated with the lipopeptide at the desired concentration for 2 h at room temperature, and bacterial cells were collected by centrifugation (12,857 g, 20 min). Samples were fixed with 2.5% glutaraldehyde in phosphate buffer for 2 h at 4 °C, washed with the same buffer, and post fixed with 1% osmium tetroxide in buffer containing 0.8% potassium ferricyanide at 4 °C. Then, the samples were dehydrated for 1 h in acetone, infiltrated in a graded series of Epon resin (Ted pella, Inc., Redding, CA, USA) during 2 days, and finally embedded in fresh Epon resin and polymerized at 60 °C during 48 h. Ultrathin sections were obtained using a Leica Ultracut UCT ultramicrotome (Leica, Vienna, Austria) and mounted on Formvar-coated copper grids. Sections were stained with 2% aqueous uranyl acetate and lead citrate and examined in a JEM-1010 electron microscope (Jeol, Tokyo, Japan).

[9] = tested on: Escherichia coli ATTC 25922; details: cited from earlier work
Protocol: Table 1 Sequences and antimicrobial activities of the synthesized peptides determined as minimal inhibitory concentration (MIC) calculated for different bacteria strains. | column: MIC/µg mL^−1 (µM) / EC ^1 || Figure 3 Comparative TEM micrographs of P. aeruginosa (left) and E. coli (right). Untreated bacteria (a,b); bacteria treated with polymyxin analogues at 1xMIC: P. aeruginosa with spB-3 (4 μg·mL^−1) (c), or with of spE-10 (1 μg·mL^−1) (e); E. coli treated with spB-3 (2 μg·mL^−1) (d) or spE-10 (8 μg·mL^−1) (f). Lipopeptides cause the alteration of the membranes, with blebs protruding, loss of membrane, clear cytoplasmic zones, and even ghost cells. Similar results are obtained with natural PxB ((g,h), this last one is adapted from (Rabanal et al. Sci. Rep. 2015).

[10] = tested on: Staphylococcus aureus ATTC 25923; details: cited from earlier work
Protocol: C6 analogues are devoid of antibacterial effect both against Gram-positive and Gram-negative bacteria, with MICs higher than 32 μg·mL^−1. C8 analogues show some activity, especially against P. aeruginosa but not on Gram-positive S. aureus. […] For example, MIC of 4 μg·mL^−1 and 2 μg·mL^−1 against P. aeruginosa for spB-3 and spE-3 respectively are obtained, where ... || Since some of the polymyxin analogues also have good activities against S. aureus, the effects on the cell morphology of this Gram-positive bacteria were determined.

[11] = tested on: Pseudomonas aeruginosa ATTC 27853; details: cited from earlier work
Protocol: C6 analogues are devoid of antibacterial effect both against Gram-positive and Gram-negative bacteria, with MICs higher than 32 μg·mL^−1. C8 analogues show some activity, especially against P. aeruginosa but not on Gram-positive S. aureus. […] For example, MIC of 4 μg·mL^−1 and 2 μg·mL^−1 against P. aeruginosa for spB-3 and spE-3 respectively are obtained, where ... || Figure 3 Comparative TEM micrographs of P. aeruginosa (left) and E. coli (right). Untreated bacteria (a,b); bacteria treated with polymyxin analogues at 1xMIC: P. aeruginosa with spB-3 (4 μg·mL^−1) (c), or with of spE-10 (1 μg·mL^−1) (e); E. coli treated with spB-3 (2 μg·mL^−1) (d) or spE-10 (8 μg·mL^−1) (f). Lipopeptides cause the alteration of the membranes, with blebs protruding, loss of membrane, clear cytoplasmic zones, and even ghost cells. Similar results are obtained with natural PxB ((g,h), this last one is adapted from (Rabanal et al. Sci. Rep. 2015).

[12] = tested on: E. coli; assay: Transmission electron microscopy of treated bacteria; assay type: cell-based, Escherichia coli; details: 1xMIC, 2 h, room temperature, tryptone water
Protocol: as §3

[13] = tested on: S. aureus; assay: as above; assay type: cell-based, Staphylococcus aureus; details: 1xMIC, 120 min, tryptone water
Protocol: as §3

[14] = 5 × 10^5 CFU/mL, higher of the three
[15] = taken from the literature (analogues #37, #38, #39)
[16] = value in brackets, taken from the literature

| Molecule | Increase in surface pressure (Δπ), LPS [6] [mN·m^−1] | Increase in surface pressure (Δπ), POPE/POPG [7] [mN·m^−1] | Increase in surface pressure (Δπ), POPC [7] [mN·m^−1] | Increase in surface pressure (Δπ), POPG [7] [mN·m^−1] | MIC EC [9, 15] [µg/mL] | MIC EC [9, 16] [µM] | MIC SA [10, 15] [µg/mL] | MIC SA [10, 16] [µM] | MIC PA [11, 15] [µg/mL] | MIC PA [11, 16] [µM] | ultrastructural effect on S. aureus (TEM) [13] | further results |
| --- | --- | --- | --- | --- | --- | --- | --- | --- | --- | --- | --- | --- |
| CC[C@H](C)CCCCC(=O)N[C@@H](CCN)C(=O)N[C@H](C(=O)N[C@@H](CCN)C(=O)N[C@H]1CCNC(=O)[C@H]([C@@H](C)O)NC(=O)[C@H](CCN)NC(=O)[C@H](CCN)NC(=O)[C@H](CC(C)C)NC(=O)[C@@H](CC(C)C)NC(=O)[C@H](CCN)NC1=O)[C@@H](C)O [PxE, Polymyxin E, reference compound] (X1-[Dab]T[Dab][Dab][Dab][dL]L[Dab][Dab]T; lactam 4-C) | 11.1 | 7.9 | 0.8 | 5.3 |  |  |  |  |  |  |  | MIC SA [1, 14]: > 32 µg/mL; MIC SA ([1]; value in brackets): > 27 µM; MIC PA [2, 14]: 0.5 µg/mL; MIC PA ([2]; value in brackets): 0.43 µM; MIC EC [3, 14]: 1 µg/mL; MIC EC ([3]; value in brackets): 0.86 µM; hemolysis [4]: 13%; lipid mixing (increase in FRET) [5]: no representative changes |
| Decanoyl-[Dab]T[Dab]C[Dab]FL[Dab][Dab]C (disulfide 4-10 (inferred)) [spB-3, the C10 analogue of PxB] | 11.0 | 6.0 | 2.0 | 6.2 | 2 | 1.6 | 8 | 6.5 | 4 | 3.2 | formation of spherical mesosome-like intracellular structures and membranous inclusion bodies together with deformation of the cell envelope | ultrastructural effect on P. aeruginosa (TEM) [8]: formation of blebs that protrude from the outer membrane; ultrastructural effect on E. coli (TEM) [12]: extensive bleb formation |
| Lauroyl-[Dab]T[Dab]C[Dab]F[Nle][Dab][Dab]C (disulfide 4-10 (inferred)) [spB-8, the C12/Nle7 derivative] | 11.2 | 6.2 | 1.7 | 3.8 | 4 | 3.2 | 2 | 1.58 | 1 | 0.79 | Even more disruptive effects |  |
